Drawing on US10392404B2, “Compounds and compositions as kinase inhibitors” (NOVARTIS AG, priority 2014, dated 2019), this text covers IC50 for 21 molecules.

The target of experiment [1] is T1, C-RAF (Homo sapiens, UniProt P04049, Y340E/Y341E).
T1 construct: His tag (implied by nickel chromatography) (cleaved yes); StrepII tag (cleaved yes); made in house; host or cells: Sf9 insect cells (baculovirus), CRAF and h14-3-3 zeta co-expressed; MEK1 substrate from E. coli
Nature of the experiment: In vitro Raf activity determination (Alpha Screen, biotinylated kinase-dead MEK1 substrate), C-Raf. In kind it is biochemical. As to conditions: c-Raf approximately 4 nM; ATP 1 μM; pre-incubation 60 minutes; reaction 1 hour at room temperature. An excerpt:
CRAF cDNA was subcloned as full length protein, with Y340E and Y341E activating mutations, into a baculovirus expression vector for Sf9 insect cell expression. h14-3-3 zeta cDNA was subcloned into a baculovirus expression vector for SF9 insect cell expression. Sf9 cells co-expressing both proteins were lysed and subjected to immobilized nickel chromatography and eluted with Imidazole. A second column (StrepII binding column) was used and eluted with desthiobiotin. Protein Tags were removed using Prescission enzyme and the protein was further purified using a flowthrough step to remove tags.
C-Raf TR refers to a truncated C-Raf protein, a Δ1-324 deletion mutant. C-Raf FL refers to the full-length C-Raf protein.
(§1) Full length MEK1 with an inactivating K97R ATP binding site mutation is utilized as a RAF substrate. The MEK1 cDNA was subcloned with an N-terminal (his)6 tag into a vector for E. Coli expression. The MEK1 substrate was purified from E. Coli lysate by nickel affinity chromatography followed by anion exchange. The final MEK1 preparation was biotinylated (Pierce EZ-Link Sulfo-NHS-LC-Biotin) and concentrated.
(§2) Assay Materials: Assay buffer is 50 mM Tris, pH 7.5, 15 mM MgCl2, 0.01% Bovine Serum Albumin (BSA) and 1 mM dithiothreitol (DTT); Stop buffer is 60 mM ethylenediaminetetraacetic acid (EDTA) and 0.01% Tween® 20; b-Raf (V600E), active; biotinylated Mek, kinase dead; Alpha Screen detection kit (available from PerkinElmer™, #6760617R); Anti phospho-MEK1/2 (available from Cell Signaling Technology, Inc. #9121); 384 well low volume assay plates (White Greiner® plates).
(§3) Assay conditions: b-Raf (V600E) approximately 4 pM; c-Raf approximately 4 nM; biotinylated Mek, kinase dead approximately 10 nM; ATP 10 μM for BRAF (V600E) and 1 μM for CRAF; Pre-incubation time with compounds 60 minutes at room temperature; Reaction time 1 or 3 hours at room temperature.
(§4) Assay protocol: Raf and biotinylated Mek (kinase dead) were combined at 2× final concentrations in assay buffer (50 mM Tris, pH 7.5, 15 mM MgCl2, 0.01% BSA and 1 mM DTT) and dispensed […] per well in assay plates (Greiner white 384 well assay plates #781207) containing […] of 40× of a Raf kinase inhibitor test compound diluted in 100% DMSO. The plate was incubated for 60 minutes at room temperature. The Raf kinase activity reaction was started by the addition of […] per well of 2×ATP diluted in assay buffer. After 3 hours (b-Raf(V600E)) or 1 hour (c-Raf). The reactions were stopped and the phosphorylated product was measured using a rabbit anti-p-MEK (Cell Signaling, #9121) antibody and the Alpha Screen IgG (ProteinA) detection Kit (PerkinElmer #6760617R), by the addition of […] to the well of a mixture of the antibody (1:2000 dilution) and detection beads (1:2000 dilution of both beads) in Stop/bead buffer (25 mM EDTA, 50 mM Tris, pH 7.5, 0.01% Tween20). The additions were carried out under dark conditions to protect the detection beads from light. A lid was placed on top of the plate and incubated for 1 hour at room temperature, after which the luminescence was read on a PerkinElmer Envision instrument. The concentration of each compound for 50% inhibition (IC50) was calculated by non-linear regression using XL Fit data analysis software.

For experiment [2], the target named is T2, b-Raf (V600E) (Homo sapiens, UniProt P15056, V600E).
T2 construct: made in house
T2 sequence (P15056 whole entry V600E): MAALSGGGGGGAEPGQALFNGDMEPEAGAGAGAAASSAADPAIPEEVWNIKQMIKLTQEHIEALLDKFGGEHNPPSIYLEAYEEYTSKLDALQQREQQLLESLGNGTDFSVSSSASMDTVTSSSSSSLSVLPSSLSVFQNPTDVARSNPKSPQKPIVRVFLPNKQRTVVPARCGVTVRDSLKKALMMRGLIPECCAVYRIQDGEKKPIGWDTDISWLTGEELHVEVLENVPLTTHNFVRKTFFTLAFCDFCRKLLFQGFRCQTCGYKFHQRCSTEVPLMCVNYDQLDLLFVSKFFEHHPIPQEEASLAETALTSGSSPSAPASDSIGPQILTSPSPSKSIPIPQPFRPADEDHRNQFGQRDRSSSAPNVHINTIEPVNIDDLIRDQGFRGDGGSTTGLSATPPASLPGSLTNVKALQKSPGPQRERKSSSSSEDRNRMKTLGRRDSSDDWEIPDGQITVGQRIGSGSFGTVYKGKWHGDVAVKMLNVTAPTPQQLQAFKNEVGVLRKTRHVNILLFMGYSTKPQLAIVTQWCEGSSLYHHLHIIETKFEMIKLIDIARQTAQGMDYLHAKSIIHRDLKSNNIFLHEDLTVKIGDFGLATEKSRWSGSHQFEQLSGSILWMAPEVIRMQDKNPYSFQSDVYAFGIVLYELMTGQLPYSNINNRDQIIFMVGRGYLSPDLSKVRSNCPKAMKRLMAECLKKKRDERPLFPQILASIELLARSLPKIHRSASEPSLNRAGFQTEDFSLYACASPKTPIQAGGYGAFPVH
Put plainly: In vitro Raf activity determination (Alpha Screen, biotinylated kinase-dead MEK1 substrate), B-Raf. In kind it is biochemical. As to conditions: b-Raf (V600E) approximately 4 pM; ATP 10 μM; pre-incubation 60 minutes; reaction 3 hours at room temperature. As to the method: as §1, §2, §3, §4

T1 sequence (P04049 whole entry Y340E/Y341E): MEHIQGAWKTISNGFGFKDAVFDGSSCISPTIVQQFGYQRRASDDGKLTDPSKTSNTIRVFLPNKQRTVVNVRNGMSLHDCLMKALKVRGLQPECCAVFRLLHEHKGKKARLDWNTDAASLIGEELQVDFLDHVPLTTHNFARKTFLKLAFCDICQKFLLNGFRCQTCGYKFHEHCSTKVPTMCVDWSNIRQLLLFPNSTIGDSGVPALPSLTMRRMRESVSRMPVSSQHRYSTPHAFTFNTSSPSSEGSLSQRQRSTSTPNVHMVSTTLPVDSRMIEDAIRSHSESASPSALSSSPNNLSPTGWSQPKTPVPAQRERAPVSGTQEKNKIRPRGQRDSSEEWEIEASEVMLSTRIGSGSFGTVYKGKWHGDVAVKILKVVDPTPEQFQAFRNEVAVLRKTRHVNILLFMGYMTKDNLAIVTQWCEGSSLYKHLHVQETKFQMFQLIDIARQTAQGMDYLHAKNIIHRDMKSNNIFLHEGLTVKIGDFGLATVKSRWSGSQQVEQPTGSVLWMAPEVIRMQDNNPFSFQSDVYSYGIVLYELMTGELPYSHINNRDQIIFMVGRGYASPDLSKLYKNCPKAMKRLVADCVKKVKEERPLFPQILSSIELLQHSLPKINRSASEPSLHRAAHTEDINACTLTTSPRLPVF
T1 sequence (P63104 whole entry partner): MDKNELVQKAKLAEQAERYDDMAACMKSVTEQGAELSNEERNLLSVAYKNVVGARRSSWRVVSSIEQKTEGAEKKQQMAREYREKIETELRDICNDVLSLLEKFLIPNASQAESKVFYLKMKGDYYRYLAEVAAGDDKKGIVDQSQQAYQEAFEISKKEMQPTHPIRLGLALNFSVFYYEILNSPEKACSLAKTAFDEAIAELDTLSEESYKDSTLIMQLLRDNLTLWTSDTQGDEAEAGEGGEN

What is called IC50 is the concentration needed to halve the response being measured. Read a high IC50 as weaker potency. On to `Cc1ccc(NC(=O)c2ccnc(C(F)(F)F)c2)cc1-c1cnc(C(C)C)c(C#N)c1` [Example 121, N-(3-(5-cyano-6-isopropylpyridin-3-yl)-4-methylphenyl)-2-(trifluoromethyl) isonicotinamide], for which the half-maximal inhibitory concentration (IC50) in experiment [1] stood at 0.307 nM; in experiment [2] it was 0.871 nM.
For `Cc1ccc(NC(=O)c2cc(C(C)(C)F)ccn2)cc1-c1cnc(N2CC(C)(O)C2)c(C#N)c1` [Example 244, N-(3-(5-cyano-6-(3-hydroxy-3-methylazetidin-1-yl)pyridin-3-yl)-4-methylphenyl)-4-(2-fluoropropan-2-yl)picolinamide], the IC50 in experiment [1] amounted to 0.876 nM; in experiment [2] it was 7.18 nM.
With `Cc1ncc(NC(=O)c2cnnc(C(C)(C)C#N)c2)cc1-c1cnc(N2CCOCC2)c(C#N)c1` [Example 207, N-(5′-cyano-2-methyl-6′-morpholino-[3,3′-bipyridin]-5-yl)-6-(2-cyanopropan-2-yl)pyridazine-4-carboxamide], the IC50 is 1.35 nM in experiment [1] and 6.14 nM in experiment [2].
The matching figures for `Cc1ncc(NC(=O)c2ccnc(C(F)(F)F)c2)cc1-c1cnc(N2CCOCC2)c(C#N)c1` [Example 68, N-(5′-cyano-2-methyl-6′-morpholino-[3,3′-bipyridin]-5-yl)-2-(trifluoromethyl) isonicotinamide]: 0.223 nM and 0.902 nM.
The matching figures for `Cc1ccc(NC(=O)c2cc(C3CC3)nn2C)cc1-c1cnc(N(C)C)c(C#N)c1` [Example 255, N-(3-(5-cyano-6-(dimethylamino)pyridin-3-yl)-4-methylphenyl)-3-cyclopropyl-1-methyl-1H-pyrazole-5-carboxamide]: 4.84 nM and 35.6 nM.
Turning to `Cc1ccc(NC(=O)c2ccnc(C(C)(C)O)c2)cc1-c1cnc(NC2CCOCC2)c(C#N)c1` [Example 168, N-(3-(5-cyano-6-((tetrahydro-2H-pyran-4-yl)amino)pyridin-3-yl)-4-methylphenyl)-2-(2-hydroxypropan-2-yl)isonicotinamide], the IC50 in experiment [1] came out at 0.487 nM; in experiment [2], 1.44 nM.
On the same counts, the results for `CCC(F)(F)c1cc(C(=O)Nc2cnc(C)c(-c3cnc(N4CC(C)(O)C4)c(C#N)c3)c2)ccn1` [Example 192, N-(5′-cyano-6′-(3-hydroxy-3-methylazetidin-1-yl)-2-methyl-[3,3′-bipyridin]-5-yl)-2-(1,1-difluoropropyl) isonicotinamide] are 1.15 nM and 5.13 nM.
`Cc1ccc(NC(=O)c2cccc(C(F)(F)F)c2)cc1-c1cnc(-n2ccc(=O)cc2)c(C#N)c1` [Example 118, N-(3-(3′-cyano-4-oxo-4H-[1,2′-bipyridin]-5′-yl)-4-methylphenyl)-3-(trifluoromethyl) benzamide]: the half-maximal inhibitory concentration (IC50) amounted to 0.768 nM in experiment [1] and 5.57 nM in experiment [2].
Take `Cc1ncc(NC(=O)c2cccc(C(F)F)c2)cc1-c1cnc(NC2CCOCC2)c(C#N)c1` [Example 172, N-(5′-cyano-2-methyl-6′-((tetrahydro-2H-pyran-4-yl)amino)-[3,3′-bipyridin]-5-yl)-3-(difluoromethyl) benzamide]: the concentration for half-maximal inhibition (IC50) in experiment [1] stood at 0.356 nM; in experiment [2], 1.09 nM.
With `Cc1ccc(NC(=O)c2cc(C(C)(F)F)ccn2)cc1-c1cnc(N2CC(C)(O)C2)c(C#N)c1` [Example 240, N-(3-(5-cyano-6-(3-hydroxy-3-methylazetidin-1-yl)pyridin-3-yl)-4-methylphenyl)-4-(1,1-difluoroethyl) picolinamide], the half-inhibitory concentration (IC50) in experiment [1] was determined as 0.519 nM; in experiment [2], 3.51 nM.
Regarding `Cc1ncc(NC(=O)c2ccnc(C(F)(F)F)c2)cc1-c1cnc(C2CCOCC2)c(C#N)c1` [Example 127, N-(5′-cyano-2-methyl-6′-(tetrahydro-2H-pyran-4-yl)-[3,3′-bipyridin]-5-yl)-2-(trifluoromethyl) isonicotinamide], the half-inhibitory concentration (IC50) came to 0.464 nM in experiment [1] and 3.11 nM in experiment [2].
Consider `Cc1ncc(NC(=O)c2cccc(C(F)(F)F)c2)cc1-c1cnc(S(C)(=O)=O)c(C#N)c1` [Example 44, N-(5′-cyano-2-methyl-6′-(methylsulfonyl)-[3,3′-bipyridin]-5-yl)-3-(trifluoromethyl) benzamide], for which the IC50 in experiment [1] was found to be 2.8 nM; in experiment [2] it was 17.3 nM.
On to `COCCNc1ncc(-c2cc(NC(=O)c3ccnc(C(F)F)c3)cnc2C)cc1C#N` [Example 196, N-(5′-cyano-6′-((2-methoxyethyl)amino)-2-methyl-[3,3′-bipyridin]-5-yl)-2-(difluoromethyl) isonicotinamide], for which the concentration for half-maximal inhibition (IC50) in experiment [1] was found to be 2.14 nM; in experiment [2], 16.1 nM.
On to `Cc1ncc(NC(=O)c2ccnc(C(C)C)c2)cc1-c1cnc(N2CCOCC2)c(C#N)c1` [Example 133, N-(5′-cyano-2-methyl-6′-morpholino-[3,3′-bipyridin]-5-yl)-2-isopropyl-isonicotinamide], for which the values for the IC50 in experiment [1] and in experiment [2] were 0.33 nM and 2.05 nM, respectively.
The matching figures for `Cc1ccc(NC(=O)c2cnnc(C(C)(C)C#N)c2)cc1-c1cnc(N2CCNCC2)c(C#N)c1` [Example 211, N-(3-(5-cyano-6-(piperazin-1-yl)pyridin-3-yl)-4-methylphenyl)-6-(2-cyanopropan-2-yl)pyridazine-4-carboxamide]: 0.886 nM and 3.07 nM.
The matching figures for `Cc1ncc(NC(=O)c2ccnc(C(C)(C)C#N)c2)cc1-c1cnc(N2C[C@H]3CC[C@@H](C2)O3)c(C#N)c1` [Example 88, N-(6′-((1R,5S)-8-oxa-3-azabicyclo[3,2,1]octan-3-yl)-5′-cyano-2-methyl-[3,3′-bipyridin]-5-yl)-2-(2-cyanopropan-2-yl)isonicotinamide]: 0.612 nM and 2.04 nM.
Take `Cc1ncc(NC(=O)c2ccnc(C(C)(C)C#N)c2)cc1-c1cnc(-c2cn(C)nc2C)c(C#N)c1` [Example 113, N-(5′-cyano-6′-(1,3-dimethyl-1H-pyrazol-4-yl)-2-methyl-[3,3′-bipyridin]-5-yl)-2-(2-cyanopropan-2-yl)isonicotinamide]: the half-maximal inhibitory concentration (IC50) is 1.79 nM in experiment [1] and 6.26 nM in experiment [2].
`Cc1ccc(NC(=O)c2cnnc(C(F)(F)F)c2)cc1-c1cnc(N2CCOCC2)c(C#N)c1` [Example 208, N-(3-(5-cyano-6-morpholinopyridin-3-yl)-4-methylphenyl)-6-(trifluoromethyl) pyridazine-4-carboxamide]: the half-maximal inhibitory concentration (IC50) turned out to be 0.0967 nM in experiment [1] and 0.397 nM in experiment [2].
On the same counts, the results for `Cc1ncc(NC(=O)c2ccnc(C(C)(C)C#N)c2)cc1-c1cnc(N2CCCC2)c(C#N)c1` [Example 73, N-(5′-cyano-2-methyl-6′-(pyrrolidin-1-yl)-[3,3′-bipyridin]-5-yl)-2-(2-cyanopropan-2-yl)isonicotinamide] are 2.09 nM and 8.66 nM.
`Cc1ccc(NC(=O)c2ccnc(C(C)(C)C#N)c2)cc1-c1cnc(C2CCOCC2)c(C#N)c1` [Example 137, N-(3-(5-cyano-6-(tetrahydro-2H-pyran-4-yl)pyridin-3-yl)-4-methylphenyl)-2-(2-cyanopropan-2-yl)isonicotinamide]: the half-inhibitory concentration (IC50) in experiment [1] is 0.476 nM; in experiment [2], 1.98 nM.
For `Cc1cc(C(=O)Nc2cnc(C)c(-c3cnc(N(C)C)c(C#N)c3)c2)n(C)n1` [Example 265, N-(5′-cyano-6′-(dimethylamino)-2-methyl-[3,3′-bipyridin]-5-yl)-1,3-dimethyl-1H-pyrazole-5-carboxamide], the IC50 in experiment [1] turned out to be 312 nM.
